Experimental data taken from PubChem BioAssay AID1288 (Columbia University Molecular Screening Center, 2008).
The source made the active and inactive calls. The rule behind the calls is not given here.

Test: inhibitors of TNFa-induced E-selectin expression, confirmation, imaging, retest plus dose response, cell count (AID 1288);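 note: 0% = stimulated vehicle wells and 100% = unstimulated vehicle wells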
Conditions: human endothelial cells, TNFa-induced E-selectin, imaging; at 2 µM; stronger effect = higher value
For `CCOc1cc2[nH]c(=O)n(CCCN3CCCC3=O)c(=O)c2cc1OCC`, the inhibition was 17% (inactive). With `Cc1cc2nc(-c3ccc(SCc4ccc(C#N)cc4)nc3)[nH]c2cc1C` the inhibition was 1.98% (inactive). In the case of `CCC(=O)Nc1cccc(NC(=O)CSc2nnc(-c3ccc(NS(C)(=O)=O)cc3)n2C)c1`, the inhibition is reported as -2.9% (inactive). In the case of `Cn1c(NCCN2CCCCC2)cc(=O)n(C)c1=O`, the inhibition is reported as 22.7% (inactive). For `CN(C)CC1CSCCC1(O)c1ccc(Cl)cc1` (centres undefined), the inhibition was 20.4% (inactive). With `COc1ccc(NC(=O)c2cc(-c3ccc(OC)c(OC)c3)on2)cc1OC` the inhibition was 9.77% (inactive). In the case of `N/C(Cc1cccc2ccccc12)=N\OC(=O)c1ccc2c(c1)OCO2`, the inhibition is reported as 6.4% (inactive). In the case of `CCOc1cc(C(=O)NCc2nnc(SCC(=O)OC)n2C)cc(OCC)c1OCC`, the inhibition is reported as -6.58% (inactive). With `CSc1cccc(NC(=O)C2CCCN(S(=O)(=O)c3ccc(F)cc3)C2)c1` (centres undefined) the inhibition was 35.8% (inactive). In the case of `CS(=O)(=O)N(CC(=O)NCCC1=CCCCC1)C1CCCCC1`, the inhibition is reported as -0.77% (inactive). With `COc1cc(C(=O)OCCNC(=O)c2ccncc2)cc(OC)c1OC` the inhibition was 9.29% (inactive). For `COc1ccccc1CC1(C)NC(=O)N(CC(=O)N2CC(C)OC(C)C2)C1=O` (centres undefined), the inhibition was 9.89% (inactive). For `O=C1CC(c2ccccc2)SC(N(c2ccccc2)c2ccccc2)=N1` (centres undefined), the inhibition was 26.1% (inactive). With `O=C(Nc1ccc(Cl)cc1)c1cc2nc(-c3ccco3)cc(C(F)(F)F)n2n1` the inhibition was 14.3% (inactive). With `CC(C)(C)OC(=O)NNC(=O)NC12CC3CC(CC(C3)C1)C2` the inhibition was 3.2% (inactive). In the case of `[O-][n+]1onc2c1C(N1CCOCC1)CCC2N1CCOCC1` (centres undefined), the inhibition is reported as 5.99% (inactive). For `COc1ccc(S(=O)(=O)N(CC(N)=O)C2CCCCC2)cc1Cl`, the inhibition was 5.95% (inactive). With `Cc1ccc(-n2c(SCC(=O)Nc3nccs3)nc3c(c2=O)SCC3)cc1` the inhibition was 5.08% (inactive). In the case of `COC(=O)c1nnn(-c2ccc(Cl)c(Cl)c2)c1C(=O)OC`, the inhibition is reported as 11.3% (inactive). With `C=CCc1cccc(/C=N/NC(=O)CCCNc2ccc(C)cc2)c1O` the inhibition was 11.2% (inactive). With `CC(=O)OC(C(=O)NCc1ccco1)c1cccnc1` (centres undefined) the inhibition was 6.49% (inactive). With `Cc1ccc(S(=O)(=O)N(C)CCCC(=O)Nc2cc(C)ccc2C)cc1` the inhibition was -2.3% (inactive). In the case of `C/C(=N\NC(=O)CN(c1ccccc1Br)S(C)(=O)=O)c1ccc2c(c1)OCCO2`, the inhibition is reported as 1.65% (inactive). With `S=C(NCc1cccs1)Nc1cccc(Cl)c1Cl` the inhibition was 8.76% (inactive). With `O=c1ncn(-c2ccccc2F)c2ncccc12` the inhibition was 1.5% (inactive). In the case of `CCCn1c(SCC(=O)N2c3ccccc3Sc3ccccc32)nc2c1c(=O)n(C)c(=O)n2C`, the inhibition is reported as -8.34% (inactive). In the case of `CCCSc1nc(C)c(-c2csc(C(C#N)=C3CCCC3)n2)cc1C#N`, the inhibition is reported as 8.04% (inactive). For `COc1ccc2[nH]c(C)c(CCN3C(=O)C4C5C=CC(C5)C4C3=O)c2c1` (centres undefined), the inhibition was 9.54% (inactive). For `CCOC(=O)N1CCN(C(=O)COc2cccc3c2CCN(Cc2cccc(C)c2)C3=O)CC1`, the inhibition was 8.76% (inactive). In the case of `COc1cc(CC(=O)Oc2ccc3c(c2)OCO3)cc(OC)c1OC`, the inhibition is reported as 32.5% (inactive). With `Cc1ccccc1-n1ccnc1SCC(=O)O` the inhibition was 23% (inactive). For `Cc1ccc(-n2c(=O)c3c4c(sc3n(Cc3cc(=O)n5ccccc5n3)c2=O)CCC4)cc1C`, the inhibition was 3.95% (inactive). For `Clc1ccc(CNc2ccc3nnc(-c4ccccc4)n3n2)cc1`, the inhibition was 0.04% (inactive). With `CCCOc1ccc(/C(O)=C2/C(=O)C(=O)N(CCCn3ccnc3)C2c2ccco2)cc1` (centres undefined) the inhibition was 0.88% (inactive). With `FC(F)(F)c1cnc2c(-c3ccccc3)n[nH]c2c1` the inhibition was 0.15% (inactive). For `COc1cc(-c2nnc(COc3ccc4ccccc4c3)o2)cc(OC)c1OC`, the inhibition was 5.08% (inactive). For `Cc1cc(NC(=O)CSc2n[nH]c(N)n2)no1`, the inhibition was 14.1% (inactive). For `COC(=O)Cn1cnc2c1c(=O)n(C)c(=O)n2C`, the inhibition was 6.02% (inactive). With `CCCCOc1ccc(/C=C/C(=O)OCC(=O)NC(=O)NCC(C)C)cc1OCC` the inhibition was 15.1% (inactive). In the case of `C=CCn1c(COc2cccc(C)c2C)nnc1SCC(=O)N1CCN(c2ccccc2)CC1`, the inhibition is reported as 5.6% (inactive). With `CC(=O)N[C@@H](Cc1c[nH]c2ccccc12)C(=O)OCC(=O)Nc1ccc(S(=O)(=O)N(C)C)cc1` the inhibition was 7.84% (inactive). In the case of `O=C(/C=C/c1ccc(F)cc1)NC(=S)Nc1ccccc1C(=O)NC1CCCCC1`, the inhibition is reported as 2.9% (inactive). With `COc1ccc(C2C(C(=O)Nc3cccnc3)=C(C)Nc3nc(-c4cccs4)nn32)cc1` (centres undefined) the inhibition was 7.57% (inactive). In the case of `COc1ccc(Br)cc1C(=O)O`, the inhibition is reported as -3.94% (inactive). With `Clc1ccc(Nc2ccc(-n3ccnc3)nn2)cc1Cl` the inhibition was 11.7% (inactive). For `c1ccc(-n2c(Sc3cnccn3)nnc2-c2cccs2)cc1`, the inhibition was 8.66% (inactive). With `O=C(O)C1CCCN1S(=O)(=O)c1ccc(Br)s1` (centres undefined) (tested in a mixture with another compound) the inhibition was 6.99% (inactive). With `COc1cccc(S(=O)(=O)Nc2ccc(C(=O)N3CCN(C(=O)c4ccco4)CC3)cc2)c1` the inhibition was 31.3% (inactive). In the case of `CCOC(=O)N1CCC(N2CCN(S(=O)(=O)c3ccc(NC(C)=O)cc3)CC2)CC1`, the inhibition is reported as 5.13% (inactive).
